Measured values taken from patent US9834566B2, “Pyrazolopyrimidine macrocycles as inhibitors of human immunodeficiency virus replication” (priority 2014, dated 2017).

System: recombinant NL-RLuc virus (NL4-3 with Renilla Luciferase gene)
Test: Inhibition of HIV replication (NL-RLuc luciferase reporter virus in MT-2 cells)
Format: cell-based
Conditions: NL43, 120 h
From the text: Inhibition of HIV Replication:
A recombinant NL-RLuc proviral clone was constructed in which a section of the nef gene from NL4-3 was replaced with the Renilla Luciferase gene. This virus is fully infectious and can undergo multiple cycles of replication in cell culture. In addition, the luciferous reporter provides a simple and easy method for quantitating the extent of virus growth and consequently, the antiviral activity of test compounds. The plasmid pNLRLuc contains the proviral NL-Rluc DNA cloned into pUC18 at the PvuII site. The NL-RLuc virus was prepared by transfection of 293T cells with the plasmid pNLRLuc. Transfections were performed using the LipofectAMINE PLUS kit from Invitrogen (Carlsbad, Calif.) according to the manufacturer and the virus generated was titered in MT-2 cells. For susceptibility analyses, the titrated virus was used to infect MT-2 cells in the presence of compound, and after 5 days of incubation, cells were processed and quantitated for virus growth by the amount of expressed luciferase. Assay media was RPMI 1640 supplemented with 10% heat inactivated fetal bovine serum (FBS), 100 units/ml penicillin G/100 units/ml streptomycin, 10 mM HEPES buffer pH 7.55 and 2 mM L-glutamine. The results from at least 2 experiments were used to calculate the EC50 values. Luciferase was quantitated using the Dual Luciferase kit from Promega (Madison, Wis.). Susceptibility of viruses to compounds was determined by incubation in the presence of serial dilutions of the compound. The 50% effective concentration (EC50) was calculated by using the exponential form of the median effect equation where (Fa)=1/[1+(ED50/drug conc.)^m] (Johnson V A, Byington R T. Infectivity Assay. In Techniques in HIV Research. ed. Aldovini A, Walker B D. 71-76. New York: Stockton Press. 1990).

Row | Structure (SMILES) | EC50 [nM]
1 | Cc1nc2cc3nn2c(c1[C@H](OC(C)(C)C)C(=O)O)-c1ccc(cc1)OCCCCCCOc1cc(F)ccc1-c1cccc-3c1 [Example 1, (2S)-2-(tert-butoxy)-2-{18-fluoro-4-methyl-21,28-dioxa-5,7,8-triazahexacyclo [27.2.2.1^6,^9.1^10,^14.0^2,^7.0^15,^20]pentatriaconta-1(31),2,4,6(35),8,10(34),11,13, 15(20),16,18,29,32-tridecaen-3-yl}acetic acid] | 397
2 | Cc1nc2cc3nn2c(c1[C@H](OC(C)(C)C)C(=O)O)-c1ccc(cc1)OC/C=C/COc1cc(F)ccc1-c1cccc-3c1 [Example 2, (2S)-2-(tert-butoxy)-2-[(23E)-18-fluoro-4-methyl-21,26-dioxa-5,7,8-triazahexacyclo [25.2.2.1^6,^9.1^10,^14.0^2,^7.0^15,^20]tritriaconta-1(29),2,4,6(33),8,10(32),11,13, 15(20),16,18,23,27,30-tetradecaen-3-yl]acetic acid] | 696
3 | Cc1nc2cc3nn2c(c1[C@H](OC(C)(C)C)C(=O)O)-c1ccc(cc1)OCc1cccc(c1)COc1cc(F)ccc1-c1cccc-3c1 [Example 3, (2S)-2-(tert-butoxy)-2-{18-fluoro-4-methyl-21,29-dioxa-5,7,8-triazaheptacyclo [28.2.2.1^6,^9.1^10,^14.1^23,^27.0^2,^7.0^15,^20]heptatriaconta-1(32),2,4,6(37),8,10(36),11,13, 15(20),16,18,23(35),24,26,30,33-hexadecaen-3-yl}acetic acid] | 55
4 | Cc1nc2cc3nn2c(c1[C@H](OC(C)(C)C)C(=O)O)-c1ccc(cc1)OCC#CCOc1cc(F)ccc1-c1cccc-3c1 [Example 4, (2S)-2-(tert-butoxy)-2-{18-fluoro-4-methyl-21,26-dioxa-5,7,8-triazahexacyclo [25.2.2.1^6,^9.1^10,^14.0^2,^7.0^15,^20]tritriaconta-1(29),2,4,6(33),8,10(32),11,13, 15(20),16,18,27,30-tridecaen-23-yn-3-yl}acetic acid] | 281
5 | Cc1nc2cc3nn2c(c1[C@H](OC(C)(C)C)C(=O)O)-c1ccc(cc1)OCCOCCOc1cc(F)ccc1-c1cccc-3c1 [Example 5, (2S)-2-(tert-butoxy)-2-{18-fluoro-4-methyl-21,24,27-trioxa-5,7,8-triazahexacyclo [26.2.2.1^6,^9.1^10,^14.0^2,^7.0^15,^20]tetratriaconta-1(30),2,4,6(34),8,10(33),11,13, 15(20),16,18,28,31-tridecaen-3-yl}acetic acid] | 309
6 | Cc1nc2cc3nn2c(c1[C@H](OC(C)(C)C)C(=O)O)-c1ccc(c2ccccc12)OCc1cccc(c1)COc1cc(F)ccc1-c1cccc-3c1 [Example 6, (2S)-2-(tert-butoxy)-2-{18-fluoro-4-methyl-21,29-dioxa-5,7,8-triazaoctacyclo[28.6.2.1^6,9.1^10,14. 1^23,27.0^2,7.0^15,20.0^31,36]hentetraconta-1(37),2,4,6(41),8,10(40),11,13,15(20),16,18,23(39),24,26,30(38),31(36),32,34-octadecaen-3-yl}acetic acid] | 20000
7 | Cc1nc2cc3nn2c(c1[C@H](OC(C)(C)C)C(=O)O)-c1ccc(c2ccccc12)OCC#CCOc1cc(F)ccc1-c1cccc-3c1 [Example 7, (2S)-2-(tert-butoxy)-2-{18-fluoro-4-methyl-21,26-dioxa-5,7,8-triazaheptacyclo[25.6.2.1^6,9.1^10,14.0^2,7.0^15,20.0^28,33]heptatriaconta-1(34),2,4,6(37),8,10(36),11,13,15(20),16,18,27(35),28 (33),29,31-pentadecaen-23-yn-3-yl}acetic acid] | 12100
8 | C=C1COc2cc(ccc2C)-c2c([C@H](OC(C)(C)C)C(=O)O)c(C)nc3cc(nn23)-c2cccc(c2)-c2ccc(F)cc2OC1 [Example 8, (2S)-2-(tert-Butoxy)-2-{22-fluoro-7,13-dimethyl-17-methylidene-15,19-dioxa-3,4,6-triazahexacyclo [24.3.1.1^2,^5.1^10,^14.0^4,^9.0^20,^25]dotriaconta-1(30),2,5(32),6,8,10,12,14(31), 20(25),21,23,26,28-tridecaen-8-yl}acetic acid] | 784
9 | Cc1ccc2cc1OC/C=C/COc1cc(F)ccc1-c1cccc(c1)-c1cc3nc(C)c([C@H](OC(C)(C)C)C(=O)O)c-2n3n1 [Example 9, (2S)-2-(tert-Butoxy)-2-[(17E)-23-fluoro-7,13-dimethyl-15,20-dioxa-3,4,6-triazahexacyclo [25.3.1.1^2,^5.1^10,^14.0^4,^9.0^21,^26]tritriaconta-1(31),2,5(33),6,8,10,12,14(32), 17,21(26),22,24,27,29-tetradecaen-8-yl]acetic acid] | 489
10 | Cc1ccc2cc1OCc1cccc(n1)COc1cc(F)ccc1-c1cccc(c1)-c1cc3nc(C)c([C@H](OC(C)(C)C)C(=O)O)c-2n3n1 [Example 10, (2S)-2-(tert-Butoxy)-2-{26-fluoro-7,13-dimethyl-15,23-dioxa-3,4,6,35-tetraazaheptacyclo [28.3.1.1^2,^5.1^10,^14.0^17,^21.0^4,^9.0^24,^29]heptatriaconta-1(34),2,5(37),6,8,10,12,14(36), 17(35),18,20,24(29),25,27,30,32-hexadecaen-8-yl}acetic acid] | 4200
11 | Cc1ccc2cc1OC/C=C\COc1cc(F)ccc1-c1cccc(c1)-c1cc3nc(C)c([C@H](OC(C)(C)C)C(=O)O)c-2n3n1 [Example 11, (2S)-2-(tert-Butoxy)-2-[(17Z)-23-fluoro-7,13-dimethyl-15,20-dioxa-3,4,6-triazahexacyclo [25.3.1.1^2,^5.1^10,^14.0^4,^9.0^21,^26]tritriaconta-1(31),2,5(33),6,8,10,12,14(32), 17,21(26),22,24,27,29-tetradecaen-8-yl]acetic acid] | 3310
12 | Cc1ccc2cc1OCCC(F)(F)C(F)(F)CCOc1cc(F)ccc1-c1cccc(c1)-c1cc3nc(C)c([C@H](OC(C)(C)C)C(=O)O)c-2n3n1 [Example 12, (2S)-2-(tert-Butoxy)-2-{18,18,19,19,25-pentafluoro-7,13-dimethyl-15,22-dioxa-3,4,6-triazahexacyclo [27.3.1.1^2,^5.1^10,^14.0^4,^9.0^23,^28]pentatriaconta-1(33),2,5(35),6,8,10,12,14(34), 23(28),24,26,29,31-tridecaen-8-yl}acetic acid] | 1670
13 | Cc1ccc2cc1OCC#CCOc1cc(F)ccc1-c1cccc(c1)-c1cc3nc(C)c([C@H](OC(C)(C)C)C(=O)O)c-2n3n1 [Example 13, (2S)-2-(tert-Butoxy)-2-{23-fluoro-7,13-dimethyl-15,20-dioxa-3,4,6-triazahexacyclo [25.3.1.1^2,^5.1^10,^14.0^4,^9.0^21,^26]tritriaconta-1(31),2,5(33),6,8,10,12,14(32), 21(26),22,24,27,29-tridecaen-17-yn-8-yl}acetic acid] | 288
14 | Cc1ccc2cc1OCCN(C(C)(C)C)CCOc1cc(F)ccc1-c1cccc(c1)-c1cc3nc(C)c([C@H](OC(C)(C)C)C(=O)O)c-2n3n1 [Example 14, (2S)-2-(tert-Butoxy)-2-{18-tert-butyl-24-fluoro-7,13-dimethyl-15,21-dioxa-3,4,6,18-tetraazahexacyclo [26.3.1.1^2,^5.1^10,^14.0^4,^9.0^22,^27]tetratriaconta-1(32),2,5(34),6,8,10,12,14(33), 22(27),23,25,28,30-tridecaen-8-yl}acetic acid] | 3250
15 | Cc1ccc2cc1OCc1cccc(c1)COc1cc(F)ccc1-c1cccc(c1)-c1cc3nc(C)c([C@H](OC(C)(C)C)C(=O)O)c-2n3n1 [Example 15, (2S)-2-(tert-Butoxy)-2-{26-fluoro-7,13-dimethyl-15,23-dioxa-3,4,6-triazaheptacyclo [28.3.1.1^2,^5.1^10,^14.1^17,^21.0^4,^9.0^24,^29]heptatriaconta-1(34),2,5(37),6,8,10,12,14(36), 17(35),18,20,24(29),25,27,30,32-hexadecaen-8-yl}acetic acid] | 301
16 | Cc1ccc2cc1OCCCCCCOc1cc(F)ccc1-c1cccc(c1)-c1cc3nc(C)c([C@H](OC(C)(C)C)C(=O)O)c-2n3n1 [Example 16, (2S)-2-(tert-Butoxy)-2-{25-fluoro-7,13-dimethyl-15,22-dioxa-3,4,6-triazahexacyclo [27.3.1.1^2,^5.1^10,^14.0^4,^9.0^23,^28]pentatriaconta-1(33),2,5(35),6,8,10,12,14(34), 23(28),24,26,29,31-tridecaen-8-yl}acetic acid] | 780
17 | Cc1ccc2cc1OCCOCCOc1cc(F)ccc1-c1cccc(c1)-c1cc3nc(C)c([C@H](OC(C)(C)C)C(=O)O)c-2n3n1 [Example 17, (2S)-2-(tert-Butoxy)-2-{24-fluoro-7,13-dimethyl-15,18,21-trioxa-3,4,6-triazahexacyclo [26.3.1.1^2,^5.1^10,^14.0^4,^9.0^22,^27]tetratriaconta-1(32),2,5(34),6,8,10,12,14(33), 22(27),23,25,28,30-tridecaen-8-yl}acetic acid] | 289
